The source of these data is PubChem BioAssay AID2305 (GlaxoSmithKline (GSK), 2010).

One may read the IC50 as the concentration needed to halve the response being measured. The low end stands for higher potency, the high end for lower potency.

For the test, the system named is P. falciparum 3D7 growth, pLDH absorbance. Kind of test: blood-stage malaria parasite growth potency – strain 3D7, dose response (AID 2305).
As to `c1ccc(COc2ccc(COc3ccc(Cn4ccnc4)cc3)cc2)cc1`, the IC50 worked out at 950 nM. To `COc1ccc(CN(C)CCCc2ccc(NC(=O)Cc3ccc4nc(-c5ccccc5)ccc4c3)cc2)cc1OC` belongs 530 nM. To `Cc1cc2nc(-c3ccc(/C=C/C(=O)NCCCc4ccccc4)cc3)[nH]c2cc1C` belongs 960 nM; to `CN(c1cc(NC(=O)c2ccc(F)cc2)ccn1)C1CCN(Cc2cccc(C#N)c2)CC1`, 830 nM; to `O=C(NCc1ccccc1)Nc1ccc(-c2cccc(-c3nc4ccc(C(F)(F)F)cc4[nH]3)c2)cc1`, 660 nM.

`CN(C)c1nc2cc(-n3cnc4cc(-c5ccc(Cl)cc5)sc4c3=O)ccc2n1CCCN1CCCCC1` gave an IC50 of 840 nM. With `COc1ccc2ncc(C#N)c(CCN3CCC(NCc4ccc5c(c4)NC(=O)CO5)CC3)c2c1` the figure was 590 nM; with `CC(=O)Nc1ccc(S(=O)(=O)NC2=NC(C)(C)N(OCc3ccc(Cl)c(Cl)c3)C(N)=N2)cc1`, 30 nM; with `CCc1c[nH]c2c(N3CCCS3(=O)=O)cc(C(=O)N[C@@H](Cc3ccccc3)[C@H](O)CNC(C)(C)c3cccc(C(F)(F)F)c3)cc12`, 230 nM.

Turning to `Cc1cccc2[nH]c(-c3cccc(-c4cccc(NC(=O)C(C)CN(C)C)c4)c3)nc12` (stereo not given), the IC50 amounted to 410 nM. This IC50 is about 1.8-fold higher than that of the compound before. With `CN(C)C(=O)CC(=O)NCc1c(Cl)cccc1Cl` the figure was 200 nM; with `O=C(Nc1cccc(-c2ccc(-c3nc4ccc(C(F)(F)F)cc4[nH]3)cc2)c1)Nc1ccc(Cl)c(Cl)c1`, 890 nM; with `CC(C)CNCc1cccc(-c2cccc(CN(C(=O)Nc3ccccc3)C3CCN(Cc4ccccc4)CC3)c2)c1`, 370 nM. `COCC(=O)N(Cc1ccccc1-c1cccc(CNCCc2ccccc2)c1)C1CCN(Cc2ccccc2)CC1`: the IC50 was determined as 1100 nM. To `Cc1cc(N2CCCC2)nc(Nc2ccc(NC(=O)c3ccccc3)cc2)n1` belongs 980 nM; to `COc1ccc2ncc(F)c(CCN3CCC(CNCc4cccc5c4OCO5)CC3)c2n1`, 930 nM; to `Cc1cccc2[nH]c(-c3ccc(-c4cccc(NC(=O)C(C)CN(C)C)c4)s3)nc12` (stereo not given), 720 nM. To `COc1cc(Cc2cnc(N)nc2N)c2c(c1OC)OC(C)C=C2` (stereo not given) belongs 1250 nM; to `Cc1cc(N[C@@H](Cc2ccccc2)C(=O)NCc2cccc(F)c2)nc(NCc2ccccc2C)n1`, 980 nM. With `c1ccc(COc2ccc(Nc3ncnc4cnc(-c5ccc(CNc6cccnc6)o5)cc34)cc2)cc1` the figure was 860 nM; with `COc1cccc(-c2cnc(-c3ccncc3)nc2C2CCN(Cc3ccc(NC(C)=O)cc3)CC2)c1`, 1500 nM. In the case of `CSc1ccc(C[C@@H](C)NC[C@H](O)c2cccc(Cl)c2)cc1`, the IC50 worked out at 940 nM. With `CCCNCc1ccc(-c2ccc(CN(Cc3ccc4c(c3)OCO4)C(=O)Cc3cccnc3)cc2)nc1` the figure was 860 nM; with `COc1ccc(/C=C/C(=O)NCCCCCN2CCC(c3c[nH]c4ccccc34)CC2)cc1O`, 960 nM. To `Cc1cc2cc(/C=C/C(=O)NC3CCC(CCN4CCc5ccc(C#N)cc5CC4)CC3)ccc2[nH]1` (stereo not given) belongs 880 nM; to `Cc1cnc(CS(=O)c2nc3ccc(C(F)(F)F)cc3[nH]2)cc1OCc1ccccc1` (stereo not given), 740 nM; to `CC(C)NC[C@@H](O)[C@H](Cc1ccccc1)NC(=O)c1cc2c3c(c1)c(C(C)C)cn3CCS(=O)(=O)N2C`, 180 nM.

In turn, `COc1cc2c(cc1S(=O)(=O)c1ccc(COc3ccc(C(F)(F)F)cc3)cc1)CNCC2` displayed an IC50 of 750 nM.

Take `COc1cc(C=CC(=O)N2CCC3(CC2)CC(=O)c2ccccc2O3)cc(OC)c1OC`: the IC50 came out at 760 nM. The IC50 values of the last two compounds are within 1.5-fold of each other. The compound `C=C[C@]1(C)C[C@@H](OC(=O)NC(=O)C2CCN(C(=O)CSc3ccccc3)CC2)[C@]2(C)[C@H](C)CC[C@]3(CCC(=O)[C@H]32)[C@@H](C)[C@@H]1O` had an IC50 of 1010 nM. To `NC1CCCN(Cc2cccc(-c3ccc(-c4nc5ccccc5[nH]4)cc3)c2)C1` (stereo not given) belongs 720 nM; to `CC(C)CNC(=O)c1cncc(-c2ccc(CN(C)C3CCN(C)CC3)cc2)c1`, 880 nM; to `CN(C)Cc1cccc(-c2ccc(NC(=O)c3ccc4c(=O)n(C5CCCCC5)cnc4c3)cc2)c1`, 740 nM. To `CCNCc1ccc(-c2cccc(-c3nc4ccccc4[nH]3)c2)cc1` belongs 550 nM; to `O=C(Nc1ccccc1O)c1ccc(Oc2cccc(C(=O)Nc3ccccc3O)c2)cc1`, 800 nM; to `Cc1nn(CCOC(=O)NC(NCC2COc3ccccc3O2)C(Cl)(Cl)Cl)cc1[N+](=O)[O-]` (stereo not given), 920 nM. With `Cc1cnc(C(=O)Nc2cccc(-c3ccc(-c4nc5ccc(F)cc5[nH]4)cc3)c2)cn1`, the IC50 is 640 nM. The IC50 values of the last two compounds are within 1.5-fold of each other.

`Cc1ccc(S(C)(=O)=O)cc1/C=C/C(=O)O` gave an IC50 of 870 nM.

`CCN(CC)CCNc1ccnc2[nH]c3ccc(Cl)cc3c12`: the IC50 came to 240 nM.

Regarding `O=C(NCCOc1ccccc1)[C@H](Cc1ccccc1)Nc1ccnc(NCC2CCCCC2)n1`, the IC50 worked out at 1200 nM.

With `COc1ccc(NC(=O)N2CCCN(CCCCCNC(=O)/C=C/c3ccc(C(F)(F)F)cc3)CC2)cc1Cl`, the IC50 worked out at 980 nM. This IC50 and that of the compound before are within 1.5-fold of each other. With `COc1ccccc1NC(=O)Nc1cccc(-c2ccc(-c3nc4ccc(C(F)(F)F)cc4[nH]3)cc2)c1` the figure was 310 nM. With `O=C(/C=C/c1ccc(F)c(Br)c1)NCCCCCN1CCC(c2c[nH]c3ccccc23)CC1` the figure was 860 nM. As to `O=C(Nc1ccccc1)N(Cc1cccc(-c2cccc(CNCCc3ccccc3)c2)c1)C1CCN(Cc2ccccc2)CC1`, the IC50 was found to be 310 nM. To `c1ccc(Oc2ccc(Nc3ccnc4cc(-c5csc(CN6CCCCC6)n5)ccc34)cc2)nc1` belongs 580 nM; to `Cc1cccc2[nH]c(-c3ccc(-c4cccc(CN5CCCC5CN)c4)s3)nc12` (stereo not given), 870 nM; to `CN1CCCc2cc(NC(=O)c3cc(-c4ccc(Cl)cc4)cs3)ccc2C1`, 810 nM. With `CCCNCc1ccc(-c2ccc(CN(CCOC)C(=O)c3ccccc3)cc2)nc1` the figure was 880 nM; with `Cc1cc(Oc2ccc(-n3ccnc3)cc2)nc(N2CCN(CCCN3CCCC3)CC2)n1`, 930 nM. To `O=C(Nc1ccc(F)c([N+](=O)[O-])c1)Nc1cc(C(F)(F)F)ccc1Cl` belongs 860 nM; to `O=C(NCC(CCCN1CCC(c2c[nH]c3ccccc23)CC1)c1ccccc1)Nc1ccc(Cl)c(Cl)c1` (stereo not given), 790 nM; to `CN(C)CCNC(=O)N1CCCN(c2ncnc3cc(-c4ccccc4)sc23)CC1`, 790 nM. `CCN(CC)C(=O)c1cnc(-c2ccccc2)nc1Oc1cccc(Cl)c1` showed an IC50 of 1160 nM.

In turn, `CN1CCN(c2ccc(CNc3ccc4ncc(-c5ccc(OC(F)(F)F)cc5)n4n3)cc2)CC1` had a half-maximal inhibitory concentration (IC50) of 830 nM. To `Cc1nnc2c(NC(=O)NC3CCCC3)cc3ccc(-c4cccc(CN5CCN(C)CC5)c4)cc3n12` belongs 920 nM.

As for `CCN(CCCN1CCCCC1)c1cc(C)nc(Nc2ccc(C)c(F)c2)n1`, the IC50 was found to be 270 nM. To `CCOc1ccc(-c2noc(-c3c[nH]c4ccccc4c3=O)n2)cc1` belongs 210 nM; to `COc1ccc(C(O)CNC(C)CCc2ccc(F)cc2)cc1C(F)(F)F` (stereo not given), 750 nM. With `COc1cc(C(=O)N2CCOC(CCN3CC[C@@H]4c5ccccc5C[C@@H]43)(c3ccc(Cl)c(Cl)c3)C2)cc(OC)c1OC` (stereo not given in full) the figure was 530 nM; with `Cc1ccccc1C1CCN(C2CCC(NC(=O)c3ccc(-c4ccccn4)s3)CC2)CC1` (stereo not given), 1180 nM. In turn, `CCOC(=O)C1=C(C)N=c2sc(=Cc3ccccc3O)c(=O)n2C1c1ccc(OC)c2ccccc12` (stereo not given) returned an IC50 of 1260 nM.

As to `Cc1cc(NCCC(=O)Nc2ccccc2)nc(NCCc2ccc(F)cc2)n1`, the IC50 is 1130 nM. With `CCOC(=O)CCCCCNC[C@H](O)c1ccccc1` the figure was 330 nM. Compound `Cc1ccc(Nc2nc(C)cc(NC3CCN(C)CC3)n2)cc1` registered an IC50 of 500 nM. As to `O=C(NCCCCN1CCC(c2ccc3c(c2OCCO)CCCC3)CC1)c1sc(-c2ccc(C(F)(F)F)cc2)nc1CO`, the IC50 stood at 1050 nM. As to `CCOc1cc(C)c(C2CCN(CCCCNC(=O)c3ccc(NC(=O)c4ccc(Cl)cc4)cc3)CC2)cc1C`, the IC50 worked out at 740 nM. To `Fc1cccc(Nc2nc(NCc3ccc(OCc4ccccc4)cc3)nc(Nc3cccc(F)c3)n2)c1` belongs 1180 nM. To `CCOC(=O)c1cn(CC)c2cc(N(C)CCc3ccc(OC)c(OC)c3)c(F)cc2c1=O` belongs 430 nM; to `O=S(=O)(Nc1cccc(F)c1CNCc1ccccn1)c1ccc(Cl)c(Cl)c1`, 890 nM; to `Cc1ccc(NC(=O)c2cccc(CN3CCCN(Cc4cccc(O)c4)CC3)c2)cc1C`, 1040 nM.

Regarding `Cc1ccccc1C1CCN(C2CCC(NC(=O)/C=C/c3cc(F)ccc3F)CC2)CC1` (stereo not given), the IC50 was 1040 nM. In the case of `COc1ccccc1C1CCN(C2CCC(NC(=O)c3cc(-c4ccc(Cl)cc4)cs3)CC2)CC1` (stereo not given), the IC50 came out at 380 nM.

`c1ccc(-c2ccc(-c3nc4ccccc4[nH]3)cc2)cc1` registered an IC50 of 810 nM. With `Cc1cc(NCCc2cccc(F)c2)nc(/N=C(\N)Nc2cccc(C(F)(F)F)c2)n1` the figure was 150 nM; with `CCOC(=O)N1CCN(CCCNc2c3ccccc3nc3ccccc23)CC1`, 1010 nM; with `C=CCc1cc(SC)ccc1Oc1ccc(N)cc1`, 740 nM. To `CN1CCCC1CCOc1ccc2c(c1)N(C(=O)Nc1cc(Br)cc(C(F)(F)F)c1)CC2` (stereo not given) belongs 250 nM; to `Oc1ccc(CCNc2nc(N/N=C/C=C/c3ccc(Cl)cc3)nc(N3CCNCC3)n2)cc1`, 780 nM; to `CC(C)CCOc1ccc(NC(=O)c2cccs2)cc1`, 510 nM. With `O=C(Cn1c(CCc2cccc(F)c2F)nc(=O)c2ccccc21)N(CCN1CCCC1)Cc1ccc(-c2ccc(C(F)(F)F)cc2)cc1` the figure was 710 nM; with `CN(C)CCCOc1c(C(C)(C)C)cc(-c2cc(C(C)(C)C)c(OCCCN(C)C)c(C(C)(C)C)c2)cc1C(C)(C)C`, 270 nM. `COC(=O)c1ccc2nc(-c3ccc(/C=C/C(=O)NCc4ccc(Cl)c(Cl)c4)cc3)[nH]c2c1`: the IC50 was 1340 nM. With `COC(=O)C1(NC(=O)c2ccc(-n3nc(C)c(-c4ccccc4)c3N)cc2)CCCC1`, the IC50 is 370 nM.

On to `CCN1CCN(CCCCNc2c3ccccc3nc3ccccc23)CC1`, for which the IC50 worked out at 860 nM. This IC50 is about 2.3-fold higher than that of the compound before. To `c1ccc(-c2[nH]ncc2Nc2ccnc3ccccc23)nc1` belongs 820 nM.
